pIC50: −log10 of the molar value. Like-named read-outs stand apart in the source and are kept apart here. Some results are limits rather than exact numbers.

For one experiment, the target named is T1, PI3Kγ (p120γ) (Homo sapiens, UniProt P48736).
T1 construct: purchased Promega V1761
The experiment in a line: Inhibition of PI3K kinase activity (ADP Glo), PI3Kγ. The settings on record: read-out: biochemical potency (PI3Kγ IC50). Summed up:
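Recombinant p120γ (8 nM, 2× stock) was preincubated with compound for 1 h at rt in HEPES pH 7.4, NaCl, MgCl2 and 0.05% BSA. Reaction was started with PIP2 (0.1 mg/ml, 2×) and ATP (50 μM, 2×) and ran 60 min at rt. ADP formed was read by ADP-Glo luminescence, and IC50 came from a 4-parameter fit.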
In general terms: ADP-Glo first removes unused ATP, then detects ADP through luciferase.

In another experiment the target is T2, PI3Kγ (Homo sapiens, UniProt P48736).
T2 construct: host or cells: THP-1
T2 sequence (P48736 whole entry): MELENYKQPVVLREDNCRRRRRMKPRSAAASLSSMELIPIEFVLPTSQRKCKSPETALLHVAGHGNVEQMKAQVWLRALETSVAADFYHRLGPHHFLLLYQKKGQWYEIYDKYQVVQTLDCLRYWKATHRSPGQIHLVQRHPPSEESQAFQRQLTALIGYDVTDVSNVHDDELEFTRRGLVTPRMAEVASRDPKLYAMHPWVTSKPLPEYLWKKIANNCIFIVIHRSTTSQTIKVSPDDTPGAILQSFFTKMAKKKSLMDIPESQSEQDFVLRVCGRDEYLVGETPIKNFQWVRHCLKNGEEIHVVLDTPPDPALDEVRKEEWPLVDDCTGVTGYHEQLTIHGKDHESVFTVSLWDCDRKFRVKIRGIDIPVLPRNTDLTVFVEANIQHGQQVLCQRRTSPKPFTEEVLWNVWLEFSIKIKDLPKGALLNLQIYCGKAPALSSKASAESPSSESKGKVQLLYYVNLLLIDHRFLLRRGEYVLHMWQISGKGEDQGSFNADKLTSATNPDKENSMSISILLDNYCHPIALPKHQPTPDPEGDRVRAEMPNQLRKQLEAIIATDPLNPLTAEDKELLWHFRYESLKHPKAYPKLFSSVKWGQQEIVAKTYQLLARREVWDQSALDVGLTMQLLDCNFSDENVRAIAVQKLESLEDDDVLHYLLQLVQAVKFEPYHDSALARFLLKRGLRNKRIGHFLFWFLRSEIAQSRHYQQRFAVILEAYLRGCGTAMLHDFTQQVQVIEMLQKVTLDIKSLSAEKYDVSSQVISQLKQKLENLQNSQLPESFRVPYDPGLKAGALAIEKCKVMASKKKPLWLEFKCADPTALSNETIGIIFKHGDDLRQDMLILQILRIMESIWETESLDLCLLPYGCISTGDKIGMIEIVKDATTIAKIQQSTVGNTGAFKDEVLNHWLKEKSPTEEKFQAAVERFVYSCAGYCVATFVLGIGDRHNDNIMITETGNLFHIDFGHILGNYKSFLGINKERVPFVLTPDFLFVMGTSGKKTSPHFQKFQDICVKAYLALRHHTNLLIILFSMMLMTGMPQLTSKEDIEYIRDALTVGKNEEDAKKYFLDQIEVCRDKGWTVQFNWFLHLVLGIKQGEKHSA
As to the kind of experiment: PI3Kγ cellular assay in THP-1 cells (AKT pS473 AlphaLISA). It counts as cell-based. The procedure, abridged:
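Serum-starved THP-1 cells (1.8×10^5/well, serum-free DMEM) treated with compounds from 4 nM to 30 μM in 2% DMSO, then stimulated and lysed.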
For orientation: Bead proximity is the source of the signal in Alpha formats.

Where [1] appears, read: Table 2, rhMCP-1 stimulated AKT pS473, read-out: cellular potency (PI3Kγ IC50).
[2] abbreviates: AKT pS473, read-out: cellular potency (PI3Kγ IC50).
Where [3] appears, read: Table 1, rhMCP-1 stimulated AKT pS473, read-out: cellular potency (PI3Kγ IC50).
Setting [4] is: Table 3, rhMCP-1 stimulated AKT pS473, read-out: cellular potency (PI3Kγ IC50).
Setting [5] is: Table 6, rhMCP-1 stimulated AKT pS473, read-out: cellular potency (PI3Kγ IC50).

T1 sequence (P48736 whole entry): as above

Regarding `Cc1cc(-c2ccn3nc(N)c(C(=O)N[C@@H](C(N)=O)c4ccccc4)c3n2)cc2c1C(=O)N([C@@H](C)C1CC1)C2` [Example 245], the pIC50 (usually −log10 of the IC50, conventionally taken in molar units) on PI3Kγ (p120γ) (Table 2, p120γ) was above 7.00; at PI3Kγ (setting [1]), 6.00 to 7.00.
On to `CC[C@@H](C)N1Cc2cc(-c3ccn4nc(N)c(C(=O)NC5CC5)c4n3)cc(C)c2C1=O` [Example 306], for which the pIC50 is above 7.00 on PI3Kγ (p120γ) (Table 2, p120γ) and 6.00 to 7.00 at PI3Kγ (setting [1]).
For `Cc1cc(-c2ccn3nc(N)c(C(=O)Nc4cnn(C5CC5)c4)c3n2)cc2c1C(=O)N([C@@H](C)C1CC1)C2` [Example 294], the pIC50 on PI3Kγ (p120γ) (Table 2, p120γ) is above 7.00; on PI3Kγ (setting [1]), 6.00 to 7.00.
Turning to `C[C@@H](C1CC1)N1Cc2cc(-c3ccn4nc(N)c(C(=O)N[C@@H](CO)C(F)(F)F)c4n3)cc(NS(C)(=O)=O)c2C1=O` [Example 376], the results for the negative-log IC50 (pIC50) on PI3Kγ (p120γ) and on PI3Kγ (setting [2]) were above 7.00 and 6.00 to 7.00, respectively.
With `Cc1cc(-c2ccn3nc(N)c(C(=O)N[C@@H]4c5ccccc5C[C@@H]4O)c3n2)cc2c1C(=O)N([C@@H](C)C1CC1)C2` [Example 240], the pIC50 on PI3Kγ (p120γ) (Table 2, p120γ) is above 7.00; at PI3Kγ (setting [1]) it was 6.00 to 7.00.
In the case of `C[C@H](CO)NC(=O)c1c(N)nn2ccc(-c3cc4c(c(C5CC5)c3)C(=O)N([C@@H](C)C3CC3)C4)nc12` [Example 166, 2-Amino-5-{7-cyclopropyl-2-[(1S)-1-cyclopropylethyl]-1-oxo-2,3-dihydro-1H-isoindol-5-yl}-N-[(2R)-1-hydroxypropan-2-yl]pyrazolo[1,5-a]pyrimidine-3-carboxamide], the negative-log IC50 (pIC50) at PI3Kγ (p120γ) (Table 1, p120γ) was above 7.00; at PI3Kγ (setting [3]) it was above 7.00.
`Cc1cc(-c2ccn3nc(N)c(C(=O)NC4CC4)c3n2)cc2c1C(=O)N([C@H]1CC[C@H](O)C1)C2` [Example 323]: the pIC50 on PI3Kγ (p120γ) (Table 2, p120γ) was above 7.00; at PI3Kγ (setting [1]), 6.00 to 7.00.
For `Cc1cc(-c2ccn3nc(N)c(C(=O)N[C@@H]4CNC(=O)C4)c3n2)cc2c1C(=O)N([C@@H](C)C1CC1)C2` [Example 202] the same measures were above 7.00 and 6.00 to 7.00.
For `Cc1cc(-c2ccn3nc(N)c(C(=O)N[C@H]4CCOc5ccccc54)c3n2)cc2c1C(=O)N([C@@H](C)C1CC1)C2` [Example 261] the same measures were above 7.00 and 6.00 to 7.00.
On to `C[C@@H](C1CC1)N1Cc2cc(-c3ccn4nc(N)c(C(=O)N[C@H]5C[C@@](C)(O)C5)c4n3)cc(OC(F)(F)F)c2C1=O` [Example 23, 2-Amino-5-{2-[(1S)-1-cyclopropylethyl]-1-oxo-7-(trifluoromethoxy)-2,3-dihydro-1H-isoindol-5-yl}-N-[cis-3-hydroxy-3-methylcyclobutyl]pyrazolo[1,5-a]pyrimidine-3-carboxamide], for which the pIC50 was above 7.00 at PI3Kγ (p120γ) (Table 1, p120γ) and above 7.00 at PI3Kγ (setting [3]).
Regarding `COCC(C)(C)NC(=O)c1c(N)nn2ccc(-c3cc4c(c(NS(C)(=O)=O)c3)C(=O)N([C@@H](C)C3CC3)C4)nc12` [Example 390], the values for the pIC50 at PI3Kγ (p120γ) and on PI3Kγ (setting [2]) were above 7.00 and 6.00 to 7.00, respectively.
On to `Cc1cc(-c2ccn3nc(N)c(C(=O)NC(C)(C)CO)c3n2)cc2c1C(=O)N([C@@H](C)C1CC1)C2` [Example 223], for which the negative logarithm of the IC50 (pIC50) on PI3Kγ (p120γ) (Table 2, p120γ) is above 7.00; at PI3Kγ (setting [1]) it was 6.00 to 7.00.
As to `C[C@@H](C1CC1)N1Cc2cc(-c3ccn4nc(N)c(C(=O)N[C@@H]5COC[C@H]5O)c4n3)cc(OC(F)(F)F)c2C1=O` [Example 38, 2-Amino-5-{2-[(1S)-1-cyclopropylethyl]-1-oxo-7-(trifluoromethoxy)-2,3-dihydro-1H-isoindol-5-yl}-N-[(3R,4S)-4-hydroxyoxolan-3-yl]pyrazolo[1,5-a]pyrimidine-3-carboxamide], the pIC50 on PI3Kγ (p120γ) (Table 1, p120γ) was above 7.00; at PI3Kγ (setting [3]), above 7.00.
As for `CC[C@H](CO)NC(=O)c1c(N)nn2ccc(-c3cc(C)c4c(c3)CN([C@@H](C)C3CC3)C4=O)nc12` [Example 183], the pIC50 on PI3Kγ (p120γ) (Table 2, p120γ) was above 7.00; at PI3Kγ (setting [1]), 6.00 to 7.00.
Regarding `C[C@@H](C1CC1)N1Cc2cc(-c3ccn4nc(N)c(C(=O)Nc5cncc(F)c5)c4n3)cc(OC(F)(F)F)c2C1=O` [Example 42, 2-Amino-5-{2-[(1S)-1-cyclopropylethyl]-1-oxo-7-(trifluoromethoxy)-2,3-dihydro-1H-isoindol-5-yl}-N-(5-fluoropyridin-3-yl)pyrazolo[1,5-a]pyrimidine-3-carboxamide], the pIC50 on PI3Kγ (p120γ) (Table 1, p120γ) is above 7.00; at PI3Kγ (setting [3]), above 7.00.
Regarding `C[C@@H](C1CC1)N1Cc2cc(-c3ccn4nc(N)c(C(=O)N[C@H]5CNC[C@H]5O)c4n3)cc(C(F)(F)F)c2C1=O` [Example 357], the pIC50 on PI3Kγ (p120γ) (Table 3, p120γ) is above 7.00; on PI3Kγ (setting [4]) it was below 6.00.
`Cc1cc(-c2ccn3nc(N)c(C(=O)NC4CC4)c3n2)cc2c1C(=O)N(CC1CC1)C2` [Example 307]: the negative-log IC50 (pIC50) was above 7.00 on PI3Kγ (p120γ) (Table 2, p120γ) and 6.00 to 7.00 on PI3Kγ (setting [1]).
For the compound `C[C@@H](C1CC1)N1Cc2cc(-c3ccn4nc(N)c(C(=O)N[C@H]5CC[C@@](C)(O)CC5)c4n3)cc(C(C)(C)O)c2C1=O` [Example 171, 2-Amino-5-{2-[(1S)-1-cyclopropylethyl]-7-(2-hydroxypropan-2-yl)-1-oxo-2,3-dihydro-1H-isoindol-5-yl}-N-[cis-4-hydroxy-4-methylcyclohexyl]pyrazolo[1,5-a]pyrimidine-3-carboxamide], the negative-log IC50 (pIC50) was above 7.00 at PI3Kγ (p120γ) (Table 1, p120γ) and above 7.00 at PI3Kγ (setting [3]).
On to `CC(C)NS(=O)(=O)c1cc(-c2ccn3nc(N)c(C(=O)NC4CC4)c3n2)cc2c1C(=O)N([C@@H](C)C1CC1)C2` [Example 446], for which the pIC50 at PI3Kγ (p120γ) (Table 6, p120γ) is above 7.00; at PI3Kγ (setting [5]), 6.00 to 7.00.
For `C[C@@H](C1CC1)N1Cc2cc(-c3ccn4nc(N)c(C(=O)NC5CC5)c4n3)cc(N3CC[C@@H](O)C3)c2C1=O` [Example 150, 2-Amino-N-cyclopropyl-5-{2-[(1S)-1-cyclopropylethyl]-7-[(3R)-3-hydroxypyrrolidin-1-yl]-1-oxo-2,3-dihydro-1H-isoindol-5-yl}pyrazolo[1,5-a]pyrimidine-3-carboxamide], the pIC50 at PI3Kγ (p120γ) (Table 1, p120γ) was above 7.00; on PI3Kγ (setting [3]), above 7.00.
Consider `Cc1cc(-c2ccn3nc(N)c(C(=O)NC4(C#N)CCC4)c3n2)cc2c1C(=O)N([C@@H](C)C1CC1)C2` [Example 255], for which the pIC50 on PI3Kγ (p120γ) (Table 2, p120γ) is above 7.00; on PI3Kγ (setting [1]), 6.00 to 7.00.
In the case of `C[C@@H](C1CC1)N1Cc2cc(-c3ccn4nc(N)c(C(=O)NC5CC5)c4n3)cc(O[C@H](C)C(F)(F)F)c2C1=O` [Example 442], the negative-log IC50 (pIC50) at PI3Kγ (p120γ) (Table 6, p120γ) was above 7.00; at PI3Kγ (setting [5]), 6.00 to 7.00.
Regarding `C[C@@H](C1CC1)N1Cc2cc(-c3ccn4nc(N)c(C(=O)NC5CCS(=O)(=O)CC5)c4n3)cc(C(F)(F)F)c2C1=O` [Example 347], the negative logarithm of the IC50 (pIC50) is above 7.00 at PI3Kγ (p120γ) (Table 3, p120γ) and 6.00 to 7.00 at PI3Kγ (setting [4]).
`C[C@@H](C1CC1)N1Cc2cc(-c3ccn4nc(N)c(C(=O)Nc5ccncc5)c4n3)cc(C(F)(F)F)c2C1=O` [Example 69, (S)-2-Amino-5-(2-(1-cyclopropylethyl)-1-oxo-7-(trifluoromethyl)isoindolin-5-yl)-N-(pyridin-4-yl)pyrazolo[1,5-a]pyrimidine-3-carboxamide]: the pIC50 on PI3Kγ (p120γ) (Table 1, p120γ) was above 7.00; at PI3Kγ (setting [3]), above 7.00.
`C[C@@H](C1CC1)N1Cc2cc(-c3ccn4nc(N)c(C(=O)NC5C6CC7CC5CC(O)(C7)C6)c4n3)cc(NS(C)(=O)=O)c2C1=O` (stereo partly shown) [Example 377]: the negative logarithm of the IC50 (pIC50) at PI3Kγ (p120γ) and at PI3Kγ (setting [2]) was above 7.00 in each case.
As for `C[C@@H](C1CC1)N1Cc2cc(-c3ccn4nc(N)c(C(=O)NC5CC5)c4n3)cc(N3CC(O)C3)c2C1=O` [Example 433], the negative logarithm of the IC50 (pIC50) on PI3Kγ (p120γ) (Table 6, p120γ) was above 7.00; on PI3Kγ (setting [5]), 6.00 to 7.00.
Consider `Cc1cc(-c2ccn3nc(N)c(C(=O)N4CCCC4CO)c3n2)cc2c1C(=O)N(C(C)C1CC1)C2` (stereo not shown) [Example 289], for which the negative-log IC50 (pIC50) at PI3Kγ (p120γ) (Table 2, p120γ) was 6.00 to 7.00; at PI3Kγ (setting [1]), below 6.00.
For `Cc1cc(-c2ccn3nc(N)c(C(=O)N4CCC4CO)c3n2)cc2c1C(=O)N(C(C)C1CC1)C2` (stereo not shown) [Example 174] the same measures were above 7.00 and 6.00 to 7.00.
Consider `C[C@H](N1Cc2cc(-c3ccn4nc(N)c(C(=O)NC5COC5)c4n3)cc(NS(C)(=O)=O)c2C1=O)C(F)(F)F` [Example 116, 2-Amino-5-{7-methanesulfonamido-1-oxo-2-[(2S)-1,1,1-trifluoropropan-2-yl]-2,3-dihydro-1H-isoindol-5-yl}-N-(oxetan-3-yl)pyrazolo[1,5-a]pyrimidine-3-carboxamide], for which the negative-log IC50 (pIC50) at PI3Kγ (p120γ) (Table 1, p120γ) is above 7.00; at PI3Kγ (setting [3]) it was above 7.00.
For `Cc1cc(-c2ccn3nc(N)c(C(=O)NC4CCN(C)CC4)c3n2)cc2c1C(=O)N([C@@H](C)C1CC1)C2` [Example 209], the negative logarithm of the IC50 (pIC50) at PI3Kγ (p120γ) (Table 2, p120γ) is above 7.00; on PI3Kγ (setting [1]), 6.00 to 7.00.
For the compound `COc1cncc(NC(=O)c2c(N)nn3ccc(-c4cc5c(c(OC(F)(F)F)c4)C(=O)N([C@@H](C)C4CC4)C5)nc23)c1` [Example 43, 2-Amino-5-{2-[(1S)-1-cyclopropylethyl]-1-oxo-7-(trifluoromethoxy)-2,3-dihydro-1H-isoindol-5-yl}-N-(5-methoxypyridin-3-yl)pyrazolo[1,5-a]pyrimidine-3-carboxamide], the pIC50 on PI3Kγ (p120γ) (Table 1, p120γ) is above 7.00; at PI3Kγ (setting [3]), above 7.00.
On to `C[C@@H](O)CCNC(=O)c1c(N)nn2ccc(-c3cc4c(c(C(F)(F)F)c3)C(=O)N([C@@H](C)C3CC3)C4)nc12` [Example 341], for which the pIC50 is above 7.00 on PI3Kγ (p120γ) (Table 3, p120γ) and 6.00 to 7.00 at PI3Kγ (setting [4]).
